Holding throughout (format): cell-based, human
The subject of assay [1] is HEK cells. Briefly: Q-VD-OPh on circuit-induced cell death, flow cytometry. The note with it: Q-VD-OPh 30 μM. The method, then:
Then, because naturally occurring cell death can be modulated by small-molecule compounds, the effect of Q-VD-OPh, a caspase inhibitor, on synpoptosis circuits was investigated (FIG. 2C). […] It was also asked whether cells treated with synpoptosis circuits stain positive for TO-PRO-3, a dye that enters apoptotic cells through pannexin channels and pyroptotic cells through permeabilized membranes.
On the day before transfection, HEK cells were seeded at a density of 0.3-0.6 million cells per well on a 12-well plate, 0.1-0.3 million cells per well on a 24-well plate, or 15,000-50,000 cells per well on a 96-well plate. The cells were allowed to attach to the plate overnight, for at least 8 hours. On the day of transfection, we treated the cells with purified DNA plasmids encoding circuit components. In addition to plasmids encoding circuit components, we often included a plasmid encoding a fluorescent co-transfection marker, at roughly 50 ng DNA per well on a 24-well plate. Given the different number of molecular components in each synthetic circuit and their various relative ratios, the total amount of DNA ranged from 50 to 1 μg per well on a 24-well plate, and was scaled by 0.5 or 4 when other 12-well or 96-well plates were used, respectively. […]

In assay [2] the test system is HEK293FT cells. The assay is described as follows: Polytransfection of input proteases and caspase cleavage-site variants, Annexin staining. The settings on record: order, decreasing: ENLFFQQ; ENLFFQY; ENLYFQS+TEVP-cleavable DHFR; ENLFFQS~ENLYFQY~ENLYFQQ; ENLYFQS; both TEVP and TVMVP cleavage site. The source says: The cleavage efficiency of proteases is known to depend on corresponding accessible cleavage sites. Mutations to native protease cleavage sites can slow (i) the recruitment of substrates to the protease active site, (ii) catalytic reaction steps, or (iii) the release of the substrate from the protease. As described herein, this property to modulate cell death executioner activation thresholds. Specifically, we surveyed the following constructs with modified protease cleavage sites across a wide range of possible cell death executioner and input protease expression regimes:
Caspase 3 with ENLYFQS TEVP protease cleavage site (native protease cleavage site is ENLYFQG/S, SEQ ID NOs: 1-2), which serves as a control; Caspase 3 with ENLYFQY (SEQ ID NO: 3) TEVP protease cleavage site; Caspase 3 with ENLYFQQ (SEQ ID NO: 4) TEVP protease cleavage site; Caspase 3 with ENLFFQS (SEQ ID NO: 5) TEVP protease cleavage site; Caspase 3 with ENLFFQY (SEQ ID NO: 6) TEVP protease cleavage site; Caspase 3 with ENLFFQQ (SEQ ID NO: 7) TEVP protease cleavage site; Caspase 3 with both native TEVP and TVMVP cleavage sites separated by linker; Caspase 3 with native TEVP cleavage site fused to C-terminal TEVP-cleavable DHFR degron.
To evaluate how the mutated protease cleavage sites affect Caspase 3 activation, we polytransfected (i) input proteases (P3/P4-zipper reconstituted TEVP as a positive control, split TEVP without reconstitution domain as a negative control, or NeoR to evaluate caspase baseline activity; all with IRES-BFP to enable expression tracking) and (ii) output caspase (caspase+co-transfected GFP for expression tracking) in HEK293FT cells. Annexin staining as described above in Example 1 was used to quantify cell death.

Assay [3] concerns HEK293FT cells. The assay is described as follows: Co-transfection time course, cell death every 24 h over 4 days. The note with it: P3/P4-zipper reconstituted TEVP. The method, then: Moreover, it was evaluated if some of these mutations affect the maximal caspase activation accessible and the time dependency between caspase activation and cell death by co-transfecting (i) input proteases (P3/P4-zipper reconstituted TEVP as a positive control, split TEVP without reconstitution domain as a negative control, or NeoR to evaluate caspase baseline activity; all with IRES-BFP to enable expression tracking) and (ii) output caspase (“ENLYFQS” (SEQ ID NO: 2)/“ENLYFQQ” (SEQ ID NO: 4)/“ENLFFQQ” (SEQ ID NO: 7)+co-transfected GFP for expression tracking) in HEK293FT cells and measuring cell death every 24 h over the course of 4 days.

For assay [4], the system named is HEK cells. The assay is described as follows: Transient DNA transfection of HEK cells, Annexin/Sytox staining, flow cytometry. The note with it: tev, tvmv and hcv sites. The method, then: HEK cells were transiently co-transfected with DNA encoding the circuits, often along with Cherry, a fluorescent protein marker, and cells were analyzed by flow cytometry 16 to 24 hours later. To quantify cell death, the cells were strained with Annexin, Sytox, or both. Annexin stains apoptotic cells by binding to phosphatidylserine exposed on the outer leaflet, and pyroptotic cells by binding to phosphatidylserine in the inner leaflet after membrane permeabilization. In contrast, Sytox, a membrane-impermeable dye, primarily stains pyroptotic cells. Therefore, apoptotic cells are typically Annexin-high and Sytox-low, while pyroptotic cells are Annexin-high and Sytox-high (FIG. 7B). For simplicity, in experiments involving only a single death mode, a single relevant dye was often used. To focus on cells influenced by the circuits, the fraction of Annexin- or Sytox-positive cells was calculated after gating on the fluorescent co-transfection marker (FIG. 7C).
On the day before transfection, HEK cells were seeded at a density of 0.3-0.6 million cells per well on a 12-well plate, 0.1-0.3 million cells per well on a 24-well plate, or 15,000-50,000 cells per well on a 96-well plate. The cells were allowed to attach to the plate overnight, for at least 8 hours. On the day of transfection, we treated the cells with purified DNA plasmids encoding circuit components. […]
(A flow cytometer gives signals particle by particle.)

The values that follow come from patent publication US20250152743A1, “SYNPOPTOSIS CIRCUITS FOR PROGRAMMABLE CELL DEATH CONTROL” (California Institute of Technology, priority 2023, published 2025).

Entries after “also recorded” stand apart in the source; their conditions may differ.

Regarding `CC(C)[C@H](NC(=O)c1ccc2ccccc2n1)C(=O)N[C@@H](CC(=O)O)C(=O)COc1c(F)cccc1F` [Q-VD-OPh, Quinoline-Val-Asp-Difluorophenoxymethylketone], in the assay with HEK cells [1], the “apoptosis induced by the caspase-3 circuit” value is reported as “suppressed circuit-induced apoptosis; also recorded: markedly attenuated apoptosis” and the “pyroptosis mediated by the GSDMA circuit” value is given as “did not affect pyroptosis”. In the case of “ENLFFQQ: caspase 3 with modified TEVP cleavage site (left off: small tags and cut ends)”, the “input/output expression required for caspase activation (activation threshold)” value (“input/output expression required” below) in the assay on HEK293FT cells [2] is given as “requires the highest input/output expression for activation”. In addition, the “maximal caspase activation / maximal fraction of dead cells” value in the assay with HEK293FT cells [3] was “reduces the maximum activation to a degree where the complete killing of the cell population is not possible anymore”. Regarding “ENLFFQY: caspase 3 with modified TEVP cleavage site (left off: small tags and cut ends)”, the “input/output expression required” value in the assay with HEK293FT cells [2] was “in decreasing order”. With “ENLYFQQ: caspase 3 with modified TEVP cleavage site (left off: small tags and cut ends)”, in the assay on HEK293FT cells [2], the “input/output expression required” value is on record as “in decreasing order”. The “maximal caspase activation / maximal fraction of dead cells” value in the assay with HEK293FT cells [3] is on record as “comparable maximal fraction of dead cells”.

Regarding “ENLYFQY: caspase 3 with modified TEVP cleavage site (left off: small tags and cut ends)”, in the assay on HEK293FT cells [2], the “input/output expression required” value is given as “in decreasing order”. Regarding “hepatitis C virus protease [HCVP, reference compound]”, the “activation of cognate engineered GSDMs containing the cleavage sites” value with HEK cells [4] is reported as “orthogonally activated their cognate engineered GSDMs”.
